What was measured:
[1] = target: T1, BAG3 full-length (Homo sapiens, UniProt O95817); experiment: SPR assay on BAG3 full-length protein; conditions: Biacore T200, 0 to 100 µM, 25 °C, 1:1 interaction model, n.b. = no binding; for Kd: read-out: BAG3 FULL KD (µM) ± SD
T1 construct: both the full-length BAG3 protein and its BAG domain; purchased Novus Biologicals (Littleton, CO, USA)
Method: (§1) In this study, we employed SPR experiments to evaluate the interactions between synthesized compounds (1–14) and both the full-length BAG3 protein and its BAG domain. Only the compounds that successfully bound to the full-length BAG3 protein were tested for their interaction with the BAG domain. Protein immobilization was achieved using the amide coupling method, and the compounds were tested at ten different concentrations, ranging from 0 to 100 µM. A known binder of BAG3-BD, LK4 ((Z)-ethyl 2-(5-(3,4-dihydroxybenzylidene)-2,4-dioxothiazolidin-3yl)acetate), was used as a positive control. […] Compound 14 also bound the target but with slightly higher KD values, still within the micromolar range. The three identified compounds were further investigated to understand whether this binding induced an effect on BAG3 protein functions. The KD values reported in Table 1 for the known inhibitor LK4 differ from those in previous studies due to the use of a newer-generation instrument for the SPR experiments. The earlier experiments utilized the Biacore 3000, whereas the current study employed the Biacore T200. While ligand binding was confirmed in both sets of experiments, the slightly different KD values are attributed to the enhanced sensitivity of the Biacore T200.
(§2) Recombinant human BAG3 protein (Bcl2-associated athanogene 3) was sourced from Novus Biologicals (Littleton, CO, USA), while the BAG3 domain (BAG3-BD) was procured from ARETA International S.r.l. (Gerenzano, Italy). We utilized (Z)-ethyl 2-(5-(3,4-dihydroxybenzylidene)-2,4-dioxothiazolidin-3-yl)acetate (LK4), a known BAG3 inhibitor previously identified by our group. Surface Plasmon Resonance (SPR) spectroscopy was employed to assess the affinity of synthesized molecules for BAG3 and BAG-BD using a Biacore T200 optical biosensor equipped with CM5 sensor chips (Cytiva, Marlborough, MA, USA). BAG3 and BAG-BD were immobilized on the CM5 sensor chip using standard amine-coupling protocols. BAG3 protein (0.067 μg/μL in 10 mM CH3COONa, pH 4.5) was immobilized at a flow rate of 10 μL/min, resulting in a density of 14 kRU. The BAG3 domain (0.38 μg/μL in 10 mM CH3COONa, pH 4.5) was immobilized under similar conditions, achieving a density of 4 kRU. For the experiments, BAG3 and BAG-BD surfaces, along with an unmodified reference surface, were prepared for simultaneous analyses.
Compounds 1–14 and LK4 were dissolved to 10 mM in 100% DMSO and then diluted 1:20 (v/v) in PBS-P buffer (0.2 M phosphate buffer, 27 mM KCl, 1.37 M NaCl, 0.5% surfactant P20) to achieve a final DMSO concentration of 5.0%. These compounds were injected in a concentration series (1:2 dilution, 10 different concentrations) ranging from 0 to 100 μM, prepared in 96-well plates. SPR experiments were conducted at 25 °C with a flow rate of 20 μL/min, featuring 90 s of association and 400 s of dissociation monitoring. Changes in mass, reflected as resonance units (RU), were recorded to determine binding responses. KD values were calculated using Biaevaluation software 3.2 by globally fitting the double-referenced association and dissociation data to a 1:1 interaction model. See Supplementary Materials for all the sensorgrams (Figures S43–S50).

[2] = target: T2, BAG3-BD (Homo sapiens, UniProt O95817); experiment: SPR assay on BAG domain of BAG3 (BAG3-BD); assay type: binding; conditions: Biacore T200, 0 to 100 µM, 25 °C, 1:1 interaction model, read-out: BAG DOMAIN KD (µM) ± SD
T2 construct: the BAG3 domain (BAG3-BD) was procured from ARETA International S.r.l; purchased ARETA International S.r.l; (Gerenzano, Italy)
T2 sequence (O95817 421-498 limits assumed): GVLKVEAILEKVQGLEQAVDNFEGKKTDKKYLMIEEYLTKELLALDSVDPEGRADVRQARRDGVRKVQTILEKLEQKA
Method: as §1
as §2, with “For the experiments, BAG3 and BAG-BD surfaces, along with an unmodified reference surface, were prepared for simultaneous analyses.” left out
Compounds 1–14 and LK4 were dissolved to 10 mM in 100% DMSO and then diluted 1:20 (v/v) in PBS-P buffer (0.2 M phosphate buffer, 27 mM KCl, 1.37 M NaCl, 0.5% surfactant P20) to achieve a final DMSO concentration of 5.0%. […] Changes in mass, reflected as resonance units (RU), were recorded to determine binding responses. KD values were calculated using Biaevaluation software 3.2 by globally fitting the double-referenced association and dissociation data to a 1:1 interaction model. […]

[3] = system: HeLa cells; experiment: MTT cell viability assay on HeLa cells; assay type: cell-based; conditions: 72 h
Method: Elevated expression levels of BAG3 are strongly associated with signaling pathways in various types of malignant cells; consequently, reducing the activity of this co-chaperone inhibits cell proliferation, triggers apoptosis, and induces cell cycle arrest. To assess the activity of compounds 10, 12, and 14, cytotoxicity assays were performed on HeLa cells, which were chosen for their tendency to overexpress BAG3 proteins. MTT assays were conducted by exposing HeLa cells to different concentrations of the compounds (25, 50, and 100 µM) for 72 h. Additionally, 10% DMSO was used as a positive control, while 0.1% DMSO served as a negative control. […] The next step involved the assessment of the cytotoxicity of the most promising candidate, 10, on healthy cells to determine its safety profile. To achieve this, MTT assays were conducted on HaCat cells over 72 h.
Human cervical carcinoma cell lines (HeLa, kindly donated by Prof. Ornella Moltedo, Department of Pharmacy, University of Salerno) and immortalized human keratinocytes (HaCaT) were cultured in a DMEM/high glucose medium. This medium was supplemented with 10% FBS (v/v), 2 mM/L glutamine, 100 U/mL penicillin, and […] streptomycin. The cells were maintained at 37 °C in a humidified atmosphere with 5% CO2. To ensure logarithmic growth, the cells were sub-cultured every 2 days.
Cell viability was assessed by measuring mitochondrial metabolic activity using a colorimetric assay, which involves the reduction of 3-[4,5-dimethylthiazol-2,5-diphenyl-2H-tetrazolium bromide (MTT) to purple formazan. Stock solutions of compounds 10, 12, and 14 (50 mM in DMSO) were stored at −20 °C in the dark and diluted just before being added to the sterile culture medium. Briefly, HeLa cells (3.5 × 10^3 cells/well) were seeded in triplicate in 96-well plates, and after 24 h, to allow for attachment, the cells were treated with various concentrations of the tested compounds (25, 50 and 100 μM), 0.1% (v/v) DMSO as a negative control, and 10% (v/v) DMSO as a positive control for 72 h. Following treatment, 20 μL of MTT (5 mg/mL in PBS) was added to each well, and the cells were incubated for an additional 3 h at 37 °C. The formazan crystals formed were then dissolved in 100 μL of a buffer containing 50% (v/v) N, N-dimethylformamide and 20% SDS (pH 4.5). Absorbance was measured at 570 nm using a Multiskan™ GO Microplate Spectrophotometer (Thermo Fisher Scientific, Waltham, MA, USA,). […] The IC50 values, representing the concentration causing 50% inhibition of cell survival, were calculated and compared to control cells treated with DMSO using GraphPad Prism 8.0 software through nonlinear regression of dose–response inhibition. Only for compound 10 was the IC50 also assessed on HaCaT cells (5.0 × 10^3 cells/well) after 72 h of treatment.

T1 sequence (O95817 whole entry, the tested form may be a part): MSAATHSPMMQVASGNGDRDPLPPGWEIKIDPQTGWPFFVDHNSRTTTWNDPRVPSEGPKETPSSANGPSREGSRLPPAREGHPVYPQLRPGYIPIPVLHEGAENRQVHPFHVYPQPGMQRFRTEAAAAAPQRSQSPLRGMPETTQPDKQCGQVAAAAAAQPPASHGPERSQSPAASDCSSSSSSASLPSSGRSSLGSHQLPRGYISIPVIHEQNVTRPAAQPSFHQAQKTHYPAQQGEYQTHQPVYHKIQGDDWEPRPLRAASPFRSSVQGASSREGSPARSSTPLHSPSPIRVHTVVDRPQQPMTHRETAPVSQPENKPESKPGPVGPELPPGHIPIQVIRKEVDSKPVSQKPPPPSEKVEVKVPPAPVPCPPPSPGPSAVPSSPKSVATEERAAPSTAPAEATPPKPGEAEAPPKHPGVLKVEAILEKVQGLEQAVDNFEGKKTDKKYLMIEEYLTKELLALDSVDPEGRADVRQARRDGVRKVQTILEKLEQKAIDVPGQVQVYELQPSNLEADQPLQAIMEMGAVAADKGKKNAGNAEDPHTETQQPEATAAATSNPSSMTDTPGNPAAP

Structure (SMILES)	BAG3 FULL KD (µM) ± SD [1]	other results
c1ccc(-c2nc3ccccn3c2NC2CCCCC2)cc1 [Compound 1, N-cyclohexyl-2-phenylimidazo[1,2-a]pyridin-3-amine]	n.b. ^a	–
CCc1nc2ccccn2c1NC1CCCCC1 [Compound 2, N-cyclohexyl-2-ethylimidazo[1,2-a]pyridin-3-amine]	n.b.	–
CCCCNc1c(-c2ccccc2)nc2ccccn12 [Compound 3, N-butyl-2-phenylimidazo[1,2-a]pyridin-3-amine]	n.b.	–
CCCCNc1c(CC)nc2ccccn12 [Compound 4, N-butyl-2-ethylimidazo[1,2-a]pyridin-3-amine]	n.b.	–
Brc1ccc2nc(-c3ccccc3)c(NC3CCCCC3)n2c1 [Compound 5, 6-bromo-N-cyclohexyl-2-phenylimidazo[1,2-a]pyridin-3-amine]	n.b.	–
CCc1nc2ccc(Br)cn2c1NC1CCCCC1 [Compound 6, 6-bromo-N-cyclohexyl-2-ethylimidazo[1,2-a]pyridin-3-amine]	n.b.	–
CCc1ccc(-c2nc3cc(Br)ccn3c2NC(C)C)cc1 [Compound 7, 7-bromo-2-(4-ethylphenyl)-N-isopropylimidazo[1,2-a]pyridin-3-amine]	n.b.	–
Brc1ccn2c(Nc3ccc4ccccc4c3)c(-c3ccccc3Br)nc2c1 [Compound 8, 7-bromo-2-(2-bromophenyl)-N-(naphthalen-2-yl)imidazo[1,2-a]pyridin-3-amine]	n.b.	–
CCc1ccc(-c2nc3cc(Br)ccn3c2Nc2ccc3ccccc3c2)cc1 [Compound 9, 7-bromo-2-(4-ethylphenyl)-N-(naphthalen-2-yl)imidazo[1,2-a]pyridin-3-amine]	n.b.	–
CCc1ccc(-c2nc3ccc(Cl)cn3c2NC(C)C)cc1 [Compound 11, 6-chloro-2-(4-ethylphenyl)-N-isopropylimidazo[1,2-a]pyridin-3-amine]	n.b.	–
Clc1ccc2nc(-c3ccccc3Br)c(Nc3ccc4ccccc4c3)n2c1 [Compound 12, 2-(2-bromophenyl)-6-chloro-N-(naphthalen-2-yl)imidazo[1,2-a]pyridin-3-amine]	–	Kd [2]: 14.7 ± 2.69 µM; Kd [1]: 20.7 ± 0.42 µM; mortality at 25 µM ([3]; Homo sapiens, 25 µM): 40%; mortality at 100 µM ([3]; Homo sapiens): 60%; IC50 ([3]; Homo sapiens, seven concentrations (1 to 100 µM)): 38.9 ± 3.49 µM
COc1ccc(Nc2c(-c3cc(OC)ccc3F)nc3cc(C)ccn23)cc1 [Compound 13, 2-(2-fluoro-5-methoxyphenyl)-N-(4-methoxyphenyl)-7-methylimidazo[1,2-a]pyridin-3-amine]	n.b.	–
COc1ccc(F)c(-c2nc3cc(C)ccn3c2NCc2ccccc2)c1 [Compound 14, N-benzyl-2-(2-fluoro-5-methoxyphenyl)-7-methylimidazo[1,2-a]pyridin-3-amine]	–	Kd [2]: 16.9 ± 5.87 µM; Kd [1]: 76.2 ± 5.44 µM; mortality ([3]; 25 µM): lost its effect; mortality at 100 µM ([3]; Homo sapiens): 50%
CCOC(=O)CN1C(=O)S/C(=C\c2ccc(O)c(O)c2)C1=O [LK4, (Z)-ethyl 2-(5-(3,4-dihydroxybenzylidene)-2,4-dioxothiazolidin-3yl)acetate, reference compound]	–	Kd [2]: 0.18 ± 0.02 µM; Kd [1]: 19.9 ± 6.58 µM

Source: paper PMC11547576, “Identification of a New Promising BAG3 Modulator Featuring the Imidazopyridine Scaffold” (Molecules, 2024)
